Legend:
[1] = biological target: Protease (Human immunodeficiency virus 1, UniProt Q9YQ12); assay: Inhibition of HIV-1 protease
[2] = biological target: Cytochrome P450 2C9 (Homo sapiens, UniProt P11712); assay: Inhibition of human CYP2C9
[3] = tested on: Human immunodeficiency virus 1; assay: Antiviral activity against HIV1 by cell based assay; format: functional, organism-based
[4] = biological target: T1, Cytochrome P450 1A2 (Homo sapiens, UniProt P05177); assay: Inhibition of human CYP1A2
T1 sequence (P05177 whole entry): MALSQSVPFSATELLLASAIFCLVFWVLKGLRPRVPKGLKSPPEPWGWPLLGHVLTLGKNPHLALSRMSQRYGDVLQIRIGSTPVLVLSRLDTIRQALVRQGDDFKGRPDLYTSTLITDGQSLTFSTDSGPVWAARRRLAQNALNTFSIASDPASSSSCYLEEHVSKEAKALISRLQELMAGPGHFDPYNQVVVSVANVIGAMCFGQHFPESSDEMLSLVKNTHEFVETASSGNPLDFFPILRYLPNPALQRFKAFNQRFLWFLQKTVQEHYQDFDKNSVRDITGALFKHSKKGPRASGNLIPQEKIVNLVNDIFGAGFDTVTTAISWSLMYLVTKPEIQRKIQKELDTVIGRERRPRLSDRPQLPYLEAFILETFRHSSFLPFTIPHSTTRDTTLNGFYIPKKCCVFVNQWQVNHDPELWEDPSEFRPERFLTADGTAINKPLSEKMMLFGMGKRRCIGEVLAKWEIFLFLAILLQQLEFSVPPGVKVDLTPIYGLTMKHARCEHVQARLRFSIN

[5] = biological target: Cytochrome P450 2C19 (Homo sapiens, UniProt P33261); assay: Inhibition of human CYP2C19
[6] = biological target: Cytochrome P450 2D6 (Homo sapiens, UniProt P10635); assay: Inhibition of human CYP2D6
[7] = biological target: Cytochrome P450 3A4 (Homo sapiens, UniProt P08684); assay: Inhibition of human CYP3A4-mediated midazolam 1'-hydroxylase activity
Chain of Cytochrome P450 3A4 (P08684 whole entry): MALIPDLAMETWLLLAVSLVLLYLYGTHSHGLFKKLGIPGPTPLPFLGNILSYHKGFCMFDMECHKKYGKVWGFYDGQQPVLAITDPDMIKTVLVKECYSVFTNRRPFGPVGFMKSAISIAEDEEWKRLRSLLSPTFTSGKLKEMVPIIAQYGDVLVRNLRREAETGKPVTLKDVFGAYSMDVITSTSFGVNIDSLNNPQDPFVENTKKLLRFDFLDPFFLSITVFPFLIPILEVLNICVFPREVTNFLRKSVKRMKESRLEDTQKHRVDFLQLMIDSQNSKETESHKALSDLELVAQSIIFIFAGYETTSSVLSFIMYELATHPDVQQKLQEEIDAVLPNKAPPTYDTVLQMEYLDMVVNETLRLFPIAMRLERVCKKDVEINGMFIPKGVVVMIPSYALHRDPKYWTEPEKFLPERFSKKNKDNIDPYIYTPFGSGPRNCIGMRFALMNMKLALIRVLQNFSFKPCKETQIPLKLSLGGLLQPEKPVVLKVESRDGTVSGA

Chain of Protease (Q9YQ12 whole entry): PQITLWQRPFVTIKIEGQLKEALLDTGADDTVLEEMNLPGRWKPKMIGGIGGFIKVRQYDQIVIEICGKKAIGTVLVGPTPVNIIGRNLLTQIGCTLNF
Chain of Cytochrome P450 2D6 (P10635 whole entry): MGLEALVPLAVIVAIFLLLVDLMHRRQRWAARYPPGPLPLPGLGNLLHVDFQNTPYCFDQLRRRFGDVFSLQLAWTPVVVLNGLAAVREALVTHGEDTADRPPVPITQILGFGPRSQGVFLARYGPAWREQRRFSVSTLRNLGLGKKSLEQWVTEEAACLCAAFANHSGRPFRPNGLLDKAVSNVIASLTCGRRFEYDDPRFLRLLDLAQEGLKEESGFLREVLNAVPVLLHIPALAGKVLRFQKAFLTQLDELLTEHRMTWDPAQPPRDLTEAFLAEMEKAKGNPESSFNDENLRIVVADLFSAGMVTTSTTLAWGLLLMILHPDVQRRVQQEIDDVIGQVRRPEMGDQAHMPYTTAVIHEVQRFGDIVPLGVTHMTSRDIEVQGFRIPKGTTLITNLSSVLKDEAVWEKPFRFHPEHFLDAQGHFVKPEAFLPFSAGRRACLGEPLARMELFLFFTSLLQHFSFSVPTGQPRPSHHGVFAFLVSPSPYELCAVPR
Chain of Cytochrome P450 2C9 (P11712 whole entry): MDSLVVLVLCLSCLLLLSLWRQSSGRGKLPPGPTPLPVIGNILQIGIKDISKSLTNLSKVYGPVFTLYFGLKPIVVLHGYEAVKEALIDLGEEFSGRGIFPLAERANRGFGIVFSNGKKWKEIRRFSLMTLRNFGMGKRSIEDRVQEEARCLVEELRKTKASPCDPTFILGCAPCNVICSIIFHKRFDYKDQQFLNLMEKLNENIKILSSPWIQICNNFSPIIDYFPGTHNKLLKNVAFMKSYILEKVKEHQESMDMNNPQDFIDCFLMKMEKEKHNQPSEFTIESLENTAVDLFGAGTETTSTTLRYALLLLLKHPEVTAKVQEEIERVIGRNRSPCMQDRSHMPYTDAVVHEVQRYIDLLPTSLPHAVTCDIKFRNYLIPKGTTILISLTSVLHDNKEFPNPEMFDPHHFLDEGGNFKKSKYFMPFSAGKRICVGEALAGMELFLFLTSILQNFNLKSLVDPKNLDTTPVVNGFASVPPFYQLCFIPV
Chain of Cytochrome P450 2C19 (P33261 whole entry): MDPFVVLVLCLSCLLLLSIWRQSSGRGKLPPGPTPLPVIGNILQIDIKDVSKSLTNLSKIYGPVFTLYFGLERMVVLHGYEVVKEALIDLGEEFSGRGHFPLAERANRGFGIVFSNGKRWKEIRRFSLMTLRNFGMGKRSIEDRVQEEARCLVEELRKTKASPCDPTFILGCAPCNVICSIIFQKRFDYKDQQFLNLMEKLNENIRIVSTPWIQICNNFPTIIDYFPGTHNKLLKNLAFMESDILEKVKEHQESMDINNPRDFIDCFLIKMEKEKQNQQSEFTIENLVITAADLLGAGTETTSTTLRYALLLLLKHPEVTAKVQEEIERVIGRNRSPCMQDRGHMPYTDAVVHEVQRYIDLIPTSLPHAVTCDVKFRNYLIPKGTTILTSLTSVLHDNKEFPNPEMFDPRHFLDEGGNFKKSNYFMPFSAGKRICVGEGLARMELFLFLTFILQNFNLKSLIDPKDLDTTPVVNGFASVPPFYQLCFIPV

SMILES	IC50 [1]	IC50 [2]	EC50 [3]	IC50 [4]	IC50 [5]	IC50 [6]	IC50 [7]
CC(C)c1nc(CN(C)C(=O)N[C@@H](CCN2CCOCC2)C(=O)N[C@H](CCN(Cc2ccccc2)C(=O)OCc2cncs2)Cc2ccccc2)cs1	> 30 µM	8.1 µM	> 30 µM	> 25 µM	6.7 µM	1.3 µM	–
CC(C)c1nc(CN(C)C(=O)N[C@H](C(=O)N2CCN(C(=O)OCc3cncs3)CC2)C(C)C)cs1	–	–	> 30 µM	–	–	–	1.4 µM
CC(C)c1nc(CN(C)C(=O)N[C@H](C(=O)N[C@@H](C)CC[C@H](C)NC(=O)OCc2cncs2)C(C)C)cs1	> 30 µM	–	> 30 µM	–	–	–	–
CC(C)c1nc(CN(C)C(=O)N[C@H](C(=O)N[C@H](CCNNC(=O)OCc2cncs2)Cc2ccccc2)C(C)C)cs1	8.8 µM	–	> 30 µM	–	–	–	–
CC(C)c1nc(CN(C)C(=O)N[C@H](C(=O)N[C@H](CC(=O)[C@H](Cc2ccccc2)NC(=O)OCc2cncs2)Cc2ccccc2)C(C)C)cs1	–	–	1.65 µM	–	–	–	–
CC(C)CN(CC[C@H](Cc1ccccc1)NC(=O)OCc1cncs1)C(=O)[C@H](CCN1CCOCC1)NC(=O)N(C)Cc1csc(C(C)C)n1	> 30 µM	> 25 µM	> 30 µM	> 25 µM	> 25 µM	8.1 µM	–
CC(C)c1nc(CN(C)C(=O)N[C@@H](CCN2CCOCC2)C(=O)NC(Cc2ccccc2)CN(Cc2ccccc2)C(=O)OCc2cncs2)cs1 (stereo not given in full)	> 30 µM	–	> 30 µM	–	–	–	–
CC(C)c1nc(CN(C)C(=O)N[C@H](C(=O)N(CCCCN(Cc2ccccc2)C(=O)OCc2cncs2)Cc2ccccc2)C(C)C)cs1	22.7 µM	3.4 µM	> 30 µM	> 25 µM	1.5 µM	1.1 µM	0.24 µM
CC(C)c1nc(CN(C)C(=O)N[C@H](C(=O)NC2CCN(C(=O)OCc3cncs3)CC2)C(C)C)cs1	–	–	9 µM	–	–	–	1.67 µM
CC(C)c1nc(CN(C)C(=O)N[C@H](C(=O)N[C@H](CC[C@H](Cc2ccccc2)N(C)C(=O)OCc2cncs2)Cc2ccccc2)C(C)C)cs1	–	–	0.87 µM	–	–	–	–
CC(C)c1nc(CN(C)C(=O)N[C@H](C(=O)N[C@@H](Cc2ccccc2)C[C@H](O)[C@H](Cc2ccccc2)NC(=O)OCc2cncs2)C(C)C)cs1 [RITONAVIR]	–	–	0.015 µM	–	–	–	–
CC(C)c1nc(CN(C)C(=O)N[C@H](C(=O)N[C@@H](CC[C@@H](Cc2ccccc2)NC(=O)OCc2cncs2)Cc2ccccc2)C(C)C)cs1	> 30 µM	13.8 µM	> 30 µM	10 µM	> 5 µM	0.4 µM	–
CC(C)c1nc(CN(C)C(=O)N[C@H](C(=O)N[C@H](CCN(Cc2ccccc2)C(=O)OCc2cncs2)Cc2ccccc2)C(C)C)cs1	–	> 25 µM	> 30 µM	> 25 µM	> 25 µM	0.9 µM	0.32 µM
CC(C)c1nc(CN(C)C(=O)N[C@H](C(=O)N[C@@H](Cc2ccccc2)[C@H]2OC(C)(C)O[C@@H]2[C@H](Cc2ccccc2)NC(=O)OCc2cncs2)C(C)C)cs1	–	–	> 30 µM	–	–	–	0.31 µM
CCC[C@@H](CC[C@H](Cc1ccccc1)NC(=O)[C@@H](NC(=O)N(C)Cc1csc(C(C)C)n1)C(C)C)NC(=O)OCc1cncs1	–	–	1.7 µM	–	–	–	–
CC(C)c1nc(CN(C)C(=O)N[C@@H](CCN2CCOCC2)C(=O)N[C@H](CCN(Cc2ccccc2Cl)C(=O)OCc2cncs2)Cc2ccccc2)cs1	> 30 µM	–	> 30 µM	–	–	–	–
CC(C)c1nc(CN(C)C(=O)N[C@@H](CCN2CCOCC2)C(=O)N[C@H](CCN(Cc2ccc(Cl)cc2)C(=O)OCc2cncs2)Cc2ccccc2)cs1	> 30 µM	–	> 30 µM	–	–	–	–
CC(C)c1nc(CN(C)C(=O)N[C@H](C(=O)N[C@H](/C=C/[C@H](Cc2ccccc2)NC(=O)OCc2cncs2)Cc2ccccc2)C(C)C)cs1	–	–	11 µM	–	–	–	0.15 µM
CC(C)c1nc(CN(C)C(=O)N[C@H](C(=O)NCCCCNC(=O)OCc2cncs2)C(C)C)cs1	–	–	> 30 µM	–	–	–	–
CC(C)CN(CC[C@H](Cc1ccccc1)NC(=O)[C@H](CCN1CCOCC1)NC(=O)N(C)Cc1csc(C(C)C)n1)C(=O)OCc1cncs1	> 30 µM	–	> 30 µM	–	–	–	–
CC(C)c1nc(CN(C)C(=O)N[C@H](C(=O)N(C)[C@H](CC[C@H](Cc2ccccc2)NC(=O)OCc2cncs2)Cc2ccccc2)C(C)C)cs1	–	–	0.73 µM	–	–	–	–
CC(C)c1nc(CN(C)C(=O)N[C@H](C(=O)N[C@H](CC[C@H](Cc2ccccc2)NC(=O)OCc2cncs2)Cc2ccccc2)C(C)C)cs1	0.005 µM	6.8 µM	0.29 µM	> 25 µM	9.3 µM	2.9 µM	–
CC[C@@H](CC[C@H](CC)NC(=O)[C@@H](NC(=O)N(C)Cc1csc(C(C)C)n1)C(C)C)NC(=O)OCc1cncs1	> 30 µM	–	> 30 µM	–	–	–	–
CCC[C@@H](CC[C@H](Cc1ccccc1)NC(=O)OCc1cncs1)NC(=O)[C@@H](NC(=O)N(C)Cc1csc(C(C)C)n1)C(C)C	–	–	0.55 µM	–	–	–	–
CC(C)c1nc(CN(C)C(=O)N[C@H](C(=O)NCCNC(=O)OCc2cncs2)C(C)C)cs1	–	–	> 30 µM	–	–	–	–
CC(C)c1nc(CN(C)C(=O)N[C@H](C(=O)N[C@H](CCN(Cc2ccccc2)NC(=O)OCc2cncs2)Cc2ccccc2)C(C)C)cs1	0.03 µM	–	0.38 µM	–	–	–	–
CC(C)c1nc(CN(C)C(=O)N[C@H](C(=O)NCCCNC(=O)OCc2cncs2)C(C)C)cs1	–	–	> 30 µM	–	–	–	–
CC(C)c1nc(CN(C)C(=O)N[C@H](C(=O)N2CCC(NC(=O)OCc3cncs3)CC2)C(C)C)cs1	–	–	4 µM	–	–	–	–
CC(C)c1nc(CN(C)C(=O)N[C@H](C(=O)N(CCCN(Cc2ccccc2)C(=O)OCc2cncs2)Cc2ccccc2)C(C)C)cs1	21 µM	–	> 30 µM	–	–	–	0.3 µM
CC(C)c1nc(CN(C)C(=O)N[C@H](C(=O)N[C@@H](Cc2ccccc2)[C@H](Cc2ccccc2)NC(=O)OCc2cncs2)C(C)C)cs1	> 30 µM	> 25 µM	> 30 µM	22.9 µM	8.7 µM	2.3 µM	–

Source: ChEMBL document CHEMBL3112589, “Structure-activity relationships of diamine inhibitors of cytochrome P450 (CYP) 3A as novel pharmacoenhancers, part I: core region” (Bioorg Med Chem Lett, 2014)
